These results are taken from article PMC8445934, “Transformation of tenofovir into stable ProTide nanocrystals with long-acting pharmacokinetic profiles” (Nature Communications, 2021).

The data set has as its system human MDM. The following applies: for prodrug measurements (uptake) / prodrug measurements (retention): 10 uM; for prodrug measurements (uptake): replicates; for prodrug measurements (retention): MDM. Here is the method:
Human MDMs were used for in vitro formulation assessments. MDM formulation uptake and retention studies were performed in flat-bottom, 12-well plates at a density of 1.2 × 10^6 cells/well, with each treatment completed in triplicate. […] At 2, 4, and 8 h after treatment, the cells were collected, processed, and analyzed for drug content by UPLC-UV/vis as previously described[12],[13],[56],[63]. […] Then, a culture medium (without drug) was added, and a half-media volume was replaced every other day. MDMs were collected at days 1, 5, 10, 15, and 30 after treatment, and then analyzed for intracellular drug content by UPC-UV/vis. […] MDMs were then collected immediately after the 8 h treatment and analyzed by an FEI Tecnai G2 Spirit transmission electron microscope as previously described[11],[12],[14].
Intracellular TFV-DP was extracted from human MDM or rat PBMCs as follows. […] At 2, 4, and 8 h after treatment, MDM was washed with PBS to remove the excess free drug. The cells were then collected in 70% MS-grade MeOH. TFV-DP from MDM was extracted as follows. Sep-Pak QMA cartridges (360 mg, 37–55 μm; Waters, Milford, MA) were used to separate TFV-DP from TFV- and mono-phosphate counterparts. The QMA cartridges were conditioned with 10 ml of 500 mM KCl, followed by 10 ml of 5 mM KCl. The sample (200 μL) was loaded onto the cartridges and washed with 12 ml of 75 mM KCl. The triphosphate (TP) fraction was eluted with 3 ml of 500 mM KCl. The pH of the TP fraction was lowered to 4.25 by adding 45 μl ammonium acetate buffer (pH 4, 10 mM) per ml eluate, and dephosphorylated by adding one unit of type XA sweet potato acid phosphatase (Sigma-Aldrich) per ml eluate (3 μL per sample) and incubating at 37 °C for 45 min. […] Samples were then loaded onto Waters OASIS HLB cartridges (60 mg, 30 μm; Waters, Milford, MA) pre-conditioned with 3 ml 100% methanol followed by 3 ml 1% TFA to remove salts. Salts were removed from the dephosphorylated samples with 3.5 ml of 1% TFA in water, then eluted with 1.5 ml 100% methanol and evaporated under vacuum. Once dry, the residue was stored at −80 °C until UPLC–MS/MS analyses. Samples were reconstituted in 100 μL of 10% MeOH, 90% 7.5 mM ammonium bicarbonate pH 7 in LC-MS grade water.
TFV-DP: Parent TFV was generated from TFV-DP during sample preparation and then subjected to UPLC-MS/MS analyses. The UPLC-MS/MS system was comprised of a Waters ACQUITY UPLC system coupled to a Waters Xevo TQ-XS triple quadrupole mass spectrometer (Waters, Milford, MA) with electrospray ionization (ESI) source. A CSH C18 analytical column (2.1 × 100 mm, 1.7 µm) equipped with a guard column (Waters, Milford, MA) at 30 °C was used for analyte separation. Samples were maintained at 4 °C during analysis. […] Mobile phase A consisted of 7.5 mM ammonium bicarbonate in water (MS grade, Fisher) with pH adjusted to 7.0 with glacial acetic acid (ACS grade, Sigma). Mobile phase B was 100% methanol (MS grade, Fisher). The flow rate was 0.22 mL/min. […] B was then held at 90% for 0.4 min before returning to initial conditions. Spectra were analyzed and quantified by MassLynx software version 4.1. Quantitation was based upon drug peak area to internal standard peak area ratios.

Molecules are shown by their SMILES. “And” between values parts separate entries of the source, which are not always exact repeats. Identical values can stand only once. Like-named read-outs stand apart in the source and are kept apart here. Bounds are passed on as bounds.

For the compound `CC(C)OC(=O)[C@H](C)N[P@](=O)(CO[C@H](C)Cn1cnc2c(N)ncnc21)Oc1ccccc1` [TAF, tenofovir alafenamide], the “time by which no drug was detectable in MDM” value (10 μM) is not above 24 h. In addition, the “prodrug measurements (uptake)” value was 2.762 and 0.9713 and 2.037 (2 hours); 0.3098 (4 hours); 0.3813 (8 hours). Further, where the note is “10 μM, 8 h”, the Intracellular prodrug concentration is recorded as 0.38 μg/10^6 cells. For the same compound, the “prodrug measurements (retention)” value (day 1, replicates) came to 0; the “prodrug measurements (retention)” value (day 5, replicates) was 0; the “prodrug measurements (retention)” value (day 10, replicates) is recorded as 0; the “prodrug measurements (retention)” value (day 15, replicates) amounted to 0; the “prodrug measurements (retention)” value (day 30, replicates) is 0.
